Results reported in PMC4608580, “Synthesis and Evaluation of Biological Activity of Antimicrobial – Pro-Proliferative Peptide Conjugates” (PLoS ONE, 2015).

Experiments:
[1] = Circular dichroism, alpha-helical content; assay type: physicochemical; conditions: CD, mean residue ellipticity at 222 nm (Eq 1), peptide 0.4 mg/ml in 30 mM SDS, room temperature
Description: Circullar dichroism spectra of analyzed compounds were recorded on a Jasco J-815 spectropolarimeter using a quartz cell of 1 mm path length between 195–260 nm at room temperature. Peptides at concentration of 0.4 mg/ml were dissolved in water or 30 mM SDS solution. SDS micelle system was used as the simplified model of negatively charged lipid membrane. On the basis of the obtained results the alpha-helical content was determined from the mean residue ellipticities at 222 nm according to Eq 1: %Helix=([θ]obs/([θ]helixx(1−2.57/l))x100, (1) where [θ] obs is the experimentally observed mean-residue ellipticity at 222 nm, [θ]helix is the theoretical ellipticity of peptide of infinite length with a 100% helix population, taken as -39 500 deg·cm^2/dmol, and l is the number of peptide bonds.
Circular dichroism method was applied to obtain a basic information about the secondary structure of the synthesized compounds (with the exception of CAR, CAR3, DAL, CTEN2) in two chemical environments, water and 30 mM SDS. As expected, all the tested compounds in water adopted a random-coil structure, while in the presence of 30 mM SDS most of them formed α-helices with characteristic negative minima around 208 and 220 nm. […] The examples of CD spectra for selected peptides could be seen in supporting information (Figure A in S1 File). On the basis of the experimentally obtained values of the mean residue ellipticities of peptides at 222 nm their alpha-helical content was calculated according to the Eq 1 (Table 1).

[2] = tested on: Candida parapsilosis (CCM 8260); assay type: cell-based; conditions: broth microdilution, Mueller-Hinton broth + 2% glucose, about 2.5 x 10^3 CFU/mL, 37°C, 24 h, absorbance 590 nm, at least triplicate
Text: (§1) Escherichia coli (PCM 2057), Staphylococcus aureus (PCM 2054), Staphylococcus epidermidis (PCM 2118), Pseudomonas aeruginosa (PCM 499) were obtained from Polish Collection of Microorganisms. Fungi strains Candida albicans (CCM 8186), Candida glabrata (CCM 8270), Candida parapsilosis (CCM 8260), Candida krusei (CCM 8271), Candida tropicalis (CCM 8264) were acquired from Czech Collection of Microorganisms.
(§2) Luria-Bertani broth (LB) and Sabouraud Dextrose broth (SB) (Biocorp, Poland) were used for cultivation of bacteria and fungi strains, respectively. Antimicrobial activity of peptides was analyzed through determination of MIC (minimal inhibitory concentration) parameter according to the standard microdilution technique performed on 96-well plates. Mueller-Hinton broth (MHB) was used as the working medium for all bacterial strains, while in case of fungi it was additionally supplemented with 2% glucose.
(§3) Briefly, inoculum was prepared from freshly grown cultures of microorganisms being at their exponential phase of growth. Each well of 96-well plates containing 100 μL of serially diluted peptides in PBS (phosphate buffer saline) at concentration ranging from 2 to 250 μg/mL were inoculated with 100 μL of approximately 10^5 CFU/mL of bacterial suspension or about 2.5 x 10^3 CFU/mL of fungi suspended in a double concentrated Mueller-Hinton broth (supplemented with 2% glucose for Candida spps.). Then plates were incubated overnight at 37°C and absorbance was read at 590 nm after 24 h. Cultures without peptide were treated as positive control, while uninoculated Mueller-Hinton broth was defined as negative control. All measurements were run at least in triplicate.
(§4) All peptides were screened against the wide range of microorganisms, including Gram-negative, Gram-positive bacteria and fungi from Candida species (Table 2). Broth microdilution method for MIC determination was used as a standard procedure. All assays were performed on liquid Mueller-Hinton broth, which was additionally supplemented with 2% glucose when fungicidal activity towards Candida spps. was analyzed.

[3] = tested on: Candida krusei (CCM 8271); assay type: cell-based; conditions: broth microdilution, Mueller-Hinton broth + 2% glucose, about 2.5 x 10^3 CFU/mL, 37°C, 24 h, absorbance 590 nm, at least triplicate
Text: as §1, §2, §3, §4

[4] = tested on: Candida glabrata (CCM 8270); assay type: cell-based; conditions: broth microdilution, Mueller-Hinton broth + 2% glucose, about 2.5 x 10^3 CFU/mL, 37°C, 24 h, absorbance 590 nm, at least triplicate
Text: as §1, §2, §3, §4

[5] = tested on: Staphylococcus aureus (PCM 2054); assay type: cell-based; conditions: broth microdilution, Mueller-Hinton broth, approximately 10^5 CFU/mL, 37°C, 24 h, absorbance 590 nm, at least triplicate
Text: as §1, §2, §3, §4

[6] = tested on: Pseudomonas aeruginosa (PCM 499); assay type: cell-based; conditions: broth microdilution, Mueller-Hinton broth, approximately 10^5 CFU/mL, 37°C, 24 h, absorbance 590 nm, at least triplicate
Text: as §1, §2, §3, §4

[7] = tested on: Escherichia coli (PCM 2057); assay type: cell-based; conditions: broth microdilution, Mueller-Hinton broth, approximately 10^5 CFU/mL, 37°C, 24 h, absorbance 590 nm, at least triplicate
Text: as §1, §2, §3, §4

[8] = tested on: Staphylococcus epidermidis (PCM 2118); assay type: cell-based; conditions: broth microdilution, Mueller-Hinton broth, approximately 10^5 CFU/mL, 37°C, 24 h, absorbance 590 nm, at least triplicate
Text: as §1, §2, §3, §4

[9] = tested on: Candida tropicalis (CCM 8264); assay type: cell-based; conditions: broth microdilution, Mueller-Hinton broth + 2% glucose, about 2.5 x 10^3 CFU/mL, 37°C, 24 h, absorbance 590 nm, at least triplicate
Text: as §1, §2, §3, §4

[10] = tested on: Candida albicans (CCM 8186); assay type: cell-based; conditions: broth microdilution, Mueller-Hinton broth + 2% glucose, about 2.5 x 10^3 CFU/mL, 37°C, 24 h, absorbance 590 nm, peptide 2 to 250 μg/mL, at least triplicate
Text: as §1, §2, §3, §4

Substance: IKKILSKIKKLL-NH2 [DK5, Lys-rich derivative of amphibian AMP temporin-1CEb, …-NH2, reference compound]
- α-helicity [1]: 29%
- MIC C. parapsilosis [2]: 31.3 µg/mL
- MIC C.krusei [3]: 7.8 µg/mL
- MIC C.glabrata [4]: 62.5 µg/mL
- MIC S.aureus [5]: >125 µg/mL
- MIC P. aeruginosa [6]: 50 µg/mL
- MIC E.coli [7]: >125 µg/mL
- MIC S. epidermidis [8]: 7.8 µg/mL
- MIC C.tropicalis [9]: < 2 µg/mL
- MIC C. albicans [10]: 31.3 µg/mL

Substance: YAGFLR-PEG-IKKILSKIKKLL-NH2 [DAL-PEG-DK5, conjugate of dalargin and DK5 joined by PEG-linker]
- α-helicity [1]: 35%
- MIC C. parapsilosis [2]: 2.0 µg/mL
- MIC C.krusei [3]: 3.9 µg/mL
- MIC C.glabrata [4]: 125 µg/mL
- MIC S.aureus [5]: 50 µg/mL
- MIC P. aeruginosa [6]: 25 µg/mL
- MIC E.coli [7]: 25 µg/mL
- MIC S. epidermidis [8]: 7.8 µg/mL
- MIC C.tropicalis [9]: <2 µg/mL
- MIC C. albicans [10]: 25 µg/mL

Substance: YAGFLR-PEG-IKKILSKIKKLLK-NH2 [DAL-PEG-LK6, conjugate of dalargin and LK6 joined by PEG-linker]
- α-helicity [1]: 25%
- MIC C. parapsilosis [2]: 2.0 µg/mL
- MIC C.krusei [3]: 7.8 µg/mL
- MIC C.glabrata [4]: >125 µg/mL
- MIC S.aureus [5]: 25 µg/mL
- MIC P. aeruginosa [6]: 25 µg/mL
- MIC E.coli [7]: 25 µg/mL
- MIC S. epidermidis [8]: 7.8 µg/mL
- MIC C.tropicalis [9]: 3.9 µg/mL
- MIC C. albicans [10]: 25 µg/mL
